What was measured:
[1] = examination of patch for recrystallization after 24 months storage; assay type: physicochemical; conditions: Example 2 matrix patch (polyvinylacetate, isocetyl alcohol)
Method: The matrix layer mixture is slot die coated onto the backing layer. To do this, the mixture is allowed to flow through a slot to form a thin coat of a desired thickness, containing approximately 20 mg/cm^2 of the mixture, which is deposited onto a layer of polyester film laminate backing layer (ScotchPak 1012, 3M Corporation, St. Paul, Minn.).
A layer of double-sided pressure-sensitive polyacrylate adhesive and a layer of silicone coated polyester release liner are laminated to the face of the matrix facing away from the backing layer to form a quadruple laminate of backing layer/buspirone loaded matrix layer/pressure-sensitiveadhesive layer/release liner (peel strip) layer. […] For use, one transdermal buspirone delivery device is removed from its packet, the release liner (peel strip) layer is removed and discarded, and the pressure-sensitive adhesive layer is applied firmly to the patient's arm.

[2] = in vivo, po; cited from earlier work
premenstrual syndrome = assay: treatment of women suffering from premenstrual syndrome; assay type: in vivo, human; conditions: transdermal device of Example 6, five days preceding the onset of menstruation; eight women
clinical = conditions: human, in vivo
[3] = test system: psychogenic symptomatologies; conditions: oral; anxiety, depression, panic disorders, nicotine dependence and others; cited from earlier work
depression = assay: treatment of out-patients with clinically assessed depression; assay type: in vivo, human; conditions: transdermal device of Example 6, daily for four weeks; twenty out-patients in two groups
Method: Transdermal delivery devices are prepared as described in Example 6. Twenty out-patients comprised of both males and females and suffering from clinically assessed depression are divided into two groups.

[4] = test system: nicotine dependence / nicotine withdrawal symptoms; assay: smoking cessation: nicotine dependence and withdrawal symptoms in individuals attempting to stop smoking; assay type: in vivo, human; conditions: transdermal device of Example 1, 20 cm^2, changed once a day for 21 days; five individuals
Method: Transdermal delivery devices are prepared as described in Example 1.

| recrystallization in patch on storage [1] | Tmax (clinical; po) | AUC (clinical; topical or ocular) | Cmax (clinical; topical or ocular) | Tmax (clinical; topical or ocular) | Compound | absorption from the gastrointestinal tract [2] | premenstrual syndrome symptoms (premenstrual syndrome) | clinical response of psychogenic symptomatologies [3] | improvement of depression versus placebo patches (depression) | nicotine dependence [4] | symptoms including drowsiness, restlessness, headache, irritability, inability to concentrate, and increased appetite [4] |
| --- | --- | --- | --- | --- | --- | --- | --- | --- | --- | --- | --- |
| no recrystallization |  |  |  |  | O=C1c2ccccc2S(=O)(=O)N1CCCCN1CCN(c2ncccn2)CC1 [ipsapirone] |  |  |  |  |  |  |
|  | 0.8 h | 12.7 ng·h/mL | 0.79 ng/mL | 16.5 h | O=C1CC2(CCCC2)CC(=O)N1CCCCN1CCN(c2ncccn2)CC1 [buspirone] | poorly absorbed | decrease in their symptoms | responsive to oral buspirone | significant improvement | decrease in nicotine dependence | decrease in symptoms |
